Tests used:
[1] = biological target: T1, AdipoR1 (Mus musculus, UniProt Q91VH1); test: Measurement of AMPK phosphorylation ability (Assay 1), differentiated C2C12 cells, Western blotting; format: cell-based; details: 10 μM, 10 minutes
T1 construct: C2C12 cells (ATCC; CRL-1772, medium; host or cells: differentiated C2C12
T1 sequence (Q91VH1 1-375): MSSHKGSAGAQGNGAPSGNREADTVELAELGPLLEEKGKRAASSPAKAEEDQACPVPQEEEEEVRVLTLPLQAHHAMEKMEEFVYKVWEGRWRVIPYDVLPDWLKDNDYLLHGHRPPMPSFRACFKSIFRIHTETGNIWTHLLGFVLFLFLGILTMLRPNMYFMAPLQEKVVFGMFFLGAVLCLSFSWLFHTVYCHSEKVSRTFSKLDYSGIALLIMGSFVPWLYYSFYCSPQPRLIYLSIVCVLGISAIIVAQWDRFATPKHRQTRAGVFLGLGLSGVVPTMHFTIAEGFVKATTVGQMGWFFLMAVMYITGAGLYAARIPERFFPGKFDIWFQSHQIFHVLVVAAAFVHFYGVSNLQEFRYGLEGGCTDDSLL
Experimental: The AMPK phosphorylation ability of the respective compounds according to the present invention was measured by using differentiated C2C12 cells or HEK 293T cells.
C2C12 cells (ATCC; CRL-1772, medium; DMEM, 10% FBS) were cultured in a 12- or 24-well plate until they reached 100% confluency (37° C., 5% CO2).
The medium was changed to 2.5% Horse Serum (HS) and differentiation was started. The medium (DMEM, 2.5% HS) was replaced every three days.
After starvation, a test compound listed in Table 12 (concentration: 10 μM) was added thereto, and after 10 minutes, the medium was discarded and the plate was frozen with liquid nitrogen.
To the 12- or 24-well cell plate which had been frozen was added 100 or 150 μL of Cell lysis buffer pH 7.4 (50 mM HEPES (pH 7.4), 2 mM sodium orthovanadate, 10 mM sodium pyrophosphate, 10 mM NaF, 2 mM EDTA, 2 mM EGTA, 0.1% (v/v) NP-40, 0.2 mM PMSF), and the cells were scraped off with a cell scraper, suspended and transferred into a micro centrifugal tube. And then, the cells were ultrasonically crushed (1 second×3 times) with a sonicator. Centrifugation was performed at 4° C. at 15,000 rpm for 15 minutes, and the supernatant was recovered into a new tube.
To 100 μL of the supernatant was added 25 μL of 5× sample buffer (280 mM Tris-HCl (pH 6.9), 40% glycerol, 10% (3-mercaptoethanol, 13% SDS, a small amount of bromophenol blue) and mixed together. The rest of the supernatant was used for protein quantification, and the protein concentrations were uniformed by adding 1× sample buffer depending on the concentration of each sample.
An electrophoresis chamber was filled with 1× SDS buffer (25 mM Tris-HCl, 250 mM glycine, 0.1% SDS), and the sample was applied to a well of polyacrylamide gel. Electrophoresis was performed until the bromophenol blue in the sample reached to the bottom of the gel.
A filter paper was soaked in 1× Transfer buffer sufficiently, above which the PVDF membrane and the gel after electrophoresis were stacked in this order, and thereabove a filter paper which had been soaked in 1× Transfer buffer sufficiently was further stacked, from which an air was removed and the resultant was set in semi-dry type transfer apparatus and transferred (7V, 35 minutes).
An unnecessary portion of the blotted membrane was cutoff, and the rest was immediately soaked in blocking buffer (5% skimmed milk in Rinse buffer), and shaken at room temperature at 40 rpm for 3 hours.
After blocking, the membrane was transferred into Rinse buffer, and washed at room temperature for 10 minutes while shaking. The membrane was soaked in a primary antibody solution (AMPK alpha Antibody (Cell signaling; #2532) 1/1,000 in Rinse buffer, Phospho-AMPK alpha (Thr172) (40H9) antibody (Cell signaling; #2535) 1/1,000 in Rinse buffer), and shaken at 4° C. at 40 rpm overnight.
The membrane was soaked in a secondary antibody solution (goat anti-rabbit IgG-HRP Antibody (Santa Cruz; sc-2030) 1/2,000 in Rinse buffer), and shaken at room temperature at 40 rpm for 1 hour.
After the membrane was washed for 45 minutes in the same way as after the primary antibody reaction, the membrane was soaked in a chemiluminescent reaction solution (ECL Western Blotting Detection Reagents, GE Healthcare) for about 1 minute. An excess of the reaction solution was removed, and then the membranes were arranged on a transparent film and sandwiched with it, with which an X-ray film was exposed in a darkroom (for about several seconds to 60 seconds) to develop the film.
The X-ray film was scanned to take the image, for which the band was measured by using the image analysis software “Image J” to determine the respective amounts of pAMPK and AMPK.

[2] = tested on: AdipoR1; test: Measurement of AMPK phosphorylation ability (Assay 2), C2C12 cells with unrelated or AdipoR1 siRNA; format: cell-based, Mouse
Experimental: C2C12 cells (ATCC; CRL-1772, medium; DMEM, 10% Fetal Bovine Serum (FBS)) were cultured in a 12- or 24-well plate until they reached 100% confluency (37° C., 5% CO2). The medium was changed to DMEM, 2.5% Horse Serum (HS) and differentiation was started. The medium (DMEM, 2.5% HS) was replaced two days after the start of differentiation. The medium (DMEM, 2.5% HS) was further replaced two days after that.
On the next day following the replacement of the medium, first, 1 μL of Lipofectamine RNAiMAX and 50 μL of OPTI-MEM were mixed, and then 5 μM siRNA (sense siRNA sequence: […]tt (SEQ ID NO: 1)) and 50 μL of OPTI-MEM were mixed and the resultants were left to stand at room temperature for 5 minutes. And then, the 1 μL Lipofectamine RNAiMAX/50 μL OPTI-MEM and the 5 μM siRNA/50 μL OPTI-MEM were mixed, and the resultant was left to stand at room temperature for 10 minutes, which was added to the cells.
After 5 minutes, the medium (DMEM, 2.5 HS) was replaced, and after starvation on the next day, a test compound listed in Table 12 was added thereto. After 10 minutes, the medium was discarded and the plate was frozen with liquid nitrogen.
The respective amounts of pAMPK and AMPK were determined in the same way as in the above Assay 1.

pAMPK/AMPK (%) [1] [%] | Compound | pAMPK/AMPK (ratio) siRNA, AdipoR1 siRNA [2] [ratio] | pAMPK/AMPK (ratio) siRNA, unrelated siRNA [2] [ratio]
80.62 | O=C(NCCc1ccc(Cl)cc1)c1ccc(OC2CCN(Cc3ccccn3)CC2)cc1 [No. 264785] | 3.58 | 3.70
81.88 | COCCNC(=O)c1ccc(OC2CCN(Cc3cccc4nonc34)CC2)c(Cl)c1 [No. 484140] | 2.30 | 2.34
89.63 | COCCNC(=O)c1ccc(OC2CCN(Cc3ccc(OC)cc3F)CC2)c(Cl)c1 [No. 197248] | 2.55 | 2.09
83.71 | CC(C)(C)CN1CCC(Oc2ccc(C(=O)NCCc3ccncc3)cc2Cl)CC1 [No. 200737] | 2.68 | 2.13
89.26 | CCc1ccc(CN2CCC(Oc3ccc(C(=O)NCCOC)cc3Cl)CC2)cc1 [No. 466151] | 1.94 | 2.22
83.18 | O=C(NC1CCCC1)c1ccc(OC2CCN(Cc3cccc(O)c3)CC2)c(Cl)c1 [No. 251327] | 3.15 | 2.85
81.90 | O=C(NCC[C@@H]1C[C@@H]2C=C[C@H]1C2)c1ccc(OC2CCN(Cc3ccccn3)CC2)cc1 [No. 260544] | 4.12 | 3.79

Second part, the compound before the results:

Compound | pAMPK/AMPK (%) [1] [%] | pAMPK/AMPK (ratio) siRNA, AdipoR1 siRNA [2] [ratio] | pAMPK/AMPK (ratio) siRNA, unrelated siRNA [2] [ratio]
COc1cccc(NC(=O)c2ccc(CN3CCN(Cc4ccccc4)CC3)cc2)c1 [No. 103694] | 81.05 | 3.34 | 4.67
COc1ccc(CN2CC[C@@]2(C)C(=O)NC2CCN(Cc3ccccc3)CC2)c2ccccc12 [No. 168198] | 84.85 | 2.97 | 4.53
COCc1ccc(CN2CCC(Oc3ccc(C(=O)NC4CCCC4)cc3Cl)CC2)o1 [No. 195831] | 99.10 | 2.98 | 2.88
COc1ccc(CN2CCN(C(=O)CCNC(=O)c3ccc(C(C)(C)C)cc3)CC2)cc1C [No. 183665] | 99.03 | 2.83 | 2.88
COc1ccccc1N1CCN(CCC(=O)Nc2ccccc2Cl)CC1 [No. 189640] | 82.40 | 1.82 | 1.85
